Laboratory results: PubChem BioAssay AID1418 (Emory University Molecular Libraries Screening Center, 2008)
Calls of active or inactive are those of the source. No rule for the calls is given here.

The molecules below were run against Induced myeloid leukemia cell differentiation protein Mcl-1 (Homo sapiens) (UniProt Q07820) (assay: blockers of Bid binding to Mcl-1 – biochemical, TR-FRET, dose response (AID 1418)). Settings: Mcl-1/Bid peptide binding, TR-FRET (europium/Dy647), 2 hr.
Induced myeloid leukemia cell differentiation protein Mcl-1 (Homo sapiens), sequence (Q07820 whole entry, looked up): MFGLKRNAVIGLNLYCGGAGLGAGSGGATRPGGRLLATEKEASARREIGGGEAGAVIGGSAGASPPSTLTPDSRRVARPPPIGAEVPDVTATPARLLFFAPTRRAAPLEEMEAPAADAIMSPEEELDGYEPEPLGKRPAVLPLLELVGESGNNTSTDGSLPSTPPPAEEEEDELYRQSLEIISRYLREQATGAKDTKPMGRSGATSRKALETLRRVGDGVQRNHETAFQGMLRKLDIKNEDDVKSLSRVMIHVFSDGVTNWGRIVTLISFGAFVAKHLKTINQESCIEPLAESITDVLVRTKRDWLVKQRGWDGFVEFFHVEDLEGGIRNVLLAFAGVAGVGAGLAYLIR

Row | Compound | IC50
1 | Cc1ccc(C(=O)NNC(=O)CSc2nnc3c(n2)[nH]c2ccc(F)cc23)cc1 | > 54 µM (inactive)
2 | Nc1c(C(=O)NCCc2ccccc2)c2nc3ccccc3nc2n1CCN1CCOCC1 | > 54 µM (inactive)
3 | COc1ccc(NC(=O)CN2CCOCC2)cc1 | > 54 µM (inactive)
4 | CCOc1cc(N2CCOCC2)c(OCC)cc1NC(=O)c1cc(-c2ccco2)nc2ccccc12 | 12.5 µM
5 | CCOC(=O)N1CCN(C(=O)CSc2ccc3nnc(CCNC(=O)c4ccc(OC)cc4)n3n2)CC1 | > 54 µM (inactive)
6 | O=C(CCS(=O)(=O)c1ccc(Br)s1)NC1CCCCCC1 | > 54 µM (inactive)
7 | Cc1ccc2nc(NC(=O)c3ccc(-c4nc5ccccc5s4)s3)sc2c1 | 1.12 µM
8 | Cc1cc(C)nc(N(C#N)S(=O)(=O)c2ccccc2Cl)n1 | > 54 µM (inactive)
9 | COc1ccccc1CN1CCN(C(=O)Cc2ccccc2)CC1 | > 54 µM (inactive)
10 | COc1ccc(NC(=O)c2[nH]ncc2[N+](=O)[O-])cc1 | > 54 µM (inactive)
11 | O=C1/C(=C/C=C/c2ccco2)SC(=S)N1NS(=O)(=O)c1ccccc1 | 2.31 µM
12 | Cc1cc(C)nc(NCC(O)COc2ccccc2C)n1 (stereo not drawn) | > 54 µM (inactive)
13 | CCOc1ccc(N=C2NC(=O)S/C2=C\c2ccc(O)cc2)cc1 | 0.84 µM
14 | COc1ccc(-c2cc(C(F)(F)F)nc(N3CCOCC3)n2)cc1OC | > 54 µM (inactive)
15 | O=C(/C=C/c1cccc([N+](=O)[O-])c1)Nc1ccc(NC(=O)c2cccs2)cc1 | 10.6 µM
16 | Oc1[nH]c2ccccc2c1/C=N/N1CCCCC1 | > 54 µM (inactive)
17 | Clc1ccc(OCCCNCc2ccccc2)c(Br)c1 | > 54 µM (inactive)
18 | CCOC(=O)c1c(C)oc2cc(Br)c(OC(=O)N3CCOCC3)cc12 | > 54 µM (inactive)
19 | CC(/C=N\Nc1nnc2c(n1)[nH]c1c(C)cccc12)=C\c1ccco1 | 1.66 µM
20 | O=C(COC(=O)c1ccc2ccccc2c1)NCCCc1ccccc1 | > 54 µM (inactive)
21 | Cc1ccc(CNC(=O)CCS(=O)(=O)c2cccc3nonc23)cc1 | > 54 µM (inactive)
22 | COc1ccc(-c2ccc(/C=C3/C(=N)N4C=CSC4=NC3=O)o2)c([N+](=O)[O-])c1 | 1.46 µM
23 | O=S(=O)(NCc1ccccc1)c1cccc(S(=O)(=O)N2CCOCC2)c1 | > 54 µM (inactive)
24 | COc1cc(NC(=O)C2CCN(S(=O)(=O)c3cccc4nonc34)CC2)cc(OC)c1 | > 54 µM (inactive)
25 | Cc1nnc(Sc2cc(C(=O)NC3CC3)c3ccccc3n2)s1 | > 54 µM (inactive)
26 | O=C1OC(c2ccccc2)=C/C1=C/N1CCCCC1 | > 54 µM (inactive)

Row | Compound | IC50
27 | Cc1ccc(NC(=O)CN2CCc3ccccc3C2)cc1F | > 54 µM (inactive)
28 | Cc1cccc(NC(=S)c2nc3ccccc3s2)c1 | > 54 µM (inactive)
29 | O=C1NC(=S)N/C1=C/c1ccc(-c2c(Br)cc([N+](=O)[O-])cc2Br)o1 | 1.59 µM
30 | O=C(Nc1ccc(S(=O)(=O)Nc2ncccn2)cc1)c1ccc2ncsc2c1 | 0.86 µM
31 | CN(CCOC(=O)C1c2ccccc2Oc2ccccc21)C(C)(C)C | > 54 µM (inactive)
32 | COc1ccc(OC)c(Nc2nc(-c3cccc([N+](=O)[O-])c3)nc3ccccc23)c1 | > 54 µM (inactive)
33 | Cc1ccc(-n2cccc2/C=C2\C(=N)N3N=C(c4ccco4)SC3=NC2=O)cc1 | 3.46 µM
34 | O=C(O)c1cnn2c(C(F)(F)F)cc(-c3ccco3)nc12 | > 54 µM (inactive)
35 | O=C(COC(=O)CCNS(=O)(=O)c1ccc2c(c1)OCCO2)NC1CCCc2ccccc21 (stereo not drawn) | > 54 µM (inactive)
36 | COc1cccc(OC)c1C(=O)N1CCN(c2ccccn2)CC1 | > 54 µM (inactive)
37 | CN(C(=O)c1ccc(C#N)cc1)c1nnc(-c2cnccn2)s1 | > 54 µM (inactive)
38 | CCOC(=O)CSc1nc(C2CC2)cc(-c2ccc(Cl)cc2)c1C#N | > 54 µM (inactive)
39 | Cc1ccc2nc(N3CC(=O)Nc4ccccc43)nc(-c3ccccc3)c2c1 | > 54 µM (inactive)
40 | Cc1cccc2cc(/C=N/NC(=O)CN3CCOCC3)c(Cl)nc12 | > 54 µM (inactive)
41 | COc1ccccc1C1C2=C(N=c3s/c(=C/c4cccc(OCC(=O)O)c4)c(=O)n31)c1ccccc1CC2 (stereo not drawn) | 11.2 µM
42 | C=C(C(=O)c1ccccc1)C(C(=C)C(=O)c1ccccc1)c1ccc(OC)cc1 | > 54 µM (inactive)
43 | Cc1ccc(S(=O)(=O)/N=C2/C=C(Sc3ncn[nH]3)C(=O)c3ccccc32)cc1 | 2.73 µM
44 | O=C(CN1C(=O)c2cccc3cccc1c23)Nc1ccc(S(=O)(=O)N2CCOCC2)cc1 | > 54 µM (inactive)
45 | CCOC(=O)Cc1csc(NC(=O)CSc2nnnn2-c2ccc(C)c(C)c2)n1 | > 54 µM (inactive)
46 | CCn1c(SCC(=O)NCc2ccco2)nnc1-c1ccc(N)cc1 | > 54 µM (inactive)
47 | O=C(O)CC(NC(=O)COc1ccc(Cl)cc1Cl)C(=O)O (stereo not drawn) | > 54 µM (inactive)
48 | COc1ccccc1NC(=O)COc1cc(Br)c(CNCCCN2CCOCC2)cc1OC | > 54 µM (inactive)
49 | O=[N+]([O-])c1cc(Br)c(O)c(/C=N/Nc2nc3ccccc3s2)c1 | 1.16 µM
50 | COCCCNCC(=O)Nc1sc(C)c(C)c1C(=O)OC | > 54 µM (inactive)
51 | CCOc1ccc(-n2c(-c3ccoc3)nc3ccccc3c2=O)cc1 | > 54 µM (inactive)
52 | Cc1cc(-c2ccco2)n2c(nc3ccccc32)c1C#N | > 54 µM (inactive)

Row | Compound | IC50
53 | O=C(Cc1ccccc1)Nc1scc(-c2ccccc2)c1C(=O)N1CCOCC1 | > 54 µM (inactive)
54 | Oc1c(C(c2ccc(Cl)cc2)N2CCCC2)cc(Cl)c2cccnc12 (stereo not drawn) | 1.16 µM
55 | COc1ccc(N/C=C2\C(=O)CCc3c2oc2cc(Cl)c(O)c(Cl)c32)cc1 | 0.79 µM
56 | C=CCn1c(O)c(N=NC(=O)CNC(=O)/C=C/c2ccc(OC)cc2)c2ccccc21 | > 54 µM (inactive)
57 | Cc1nc(NC(=O)c2ccccc2)sc1-c1csc(Nc2ccc(C(=O)O)cc2)n1 | 9.88 µM
58 | COc1cc(C(=O)N/N=C\c2ccccc2)c([N+](=O)[O-])c(OC)c1OC | > 54 µM (inactive)
59 | CC(NC(=O)NC1CCCCC1)C(c1cccs1)N1CCN(c2ccccc2)CC1 (stereo not drawn) | > 54 µM (inactive)
60 | Nc1ccc(N)c(C(=O)O)c1 | 28.7 µM
61 | NS(=O)(=O)c1ccc(N/N=C/c2ccc(O)c(O)c2O)c([N+](=O)[O-])c1 | 3.17 µM
62 | CCOC(=O)c1cc2occc2n1CC(=O)NC1CCCCC1C (stereo not drawn) | > 54 µM (inactive)
63 | COc1ccccc1C1CC(c2ccccc2)Nc2ncnn21 (stereo not drawn) | > 54 µM (inactive)
64 | O=c1c(O)cccc2cc(O)c(O)c(O)c12 | 0.92 µM
65 | O=C(CSCc1ccccc1)NCCCN1CCOCC1 | > 54 µM (inactive)
66 | CCO[C@@H]1OC(C(=O)N2CCN(Cc3ccccc3)CC2)=C[C@H](C2CC2)[C@H]1CCCO | > 54 µM (inactive)
67 | COc1ccc(NS(=O)(=O)c2cccc(NC(=O)CCC(=O)c3ccc(Cl)cc3)c2)cc1 | > 54 µM (inactive)
68 | COc1ccc(C2(C)NC(=O)N(CC(=O)NCCC3=CCCCC3)C2=O)cc1OC (stereo not drawn) | > 54 µM (inactive)
69 | O=C(Cc1cccs1)N1CCN(S(=O)(=O)c2ccccc2)CC1 | > 54 µM (inactive)
70 | O=C(NC1CCCC1)c1csc2c1CCCC2 | > 54 µM (inactive)
71 | COC(=O)C(CC(C)C)NC(=O)c1ccc(F)cc1 (stereo not drawn) | > 54 µM (inactive)
72 | CCOC(=O)c1[nH]cnc1C(=O)Nc1ccncc1 | > 54 µM (inactive)
73 | COc1ccccc1OCCOc1ccc(/C=C2/C(=N)N3OC(C)=CC3=NC2=O)cc1OC | 0.56 µM
74 | Cc1ccccc1C(=O)NC(=S)Nc1sc2c(c1C#N)CCCC2 | > 54 µM (inactive)
75 | CCN(CCNC(=O)CN1CCN(Cc2ccc(Cl)cc2)C1=O)c1ccccc1 | > 54 µM (inactive)
76 | O=C(Nc1nccs1)C1CC(=O)N(Cc2ccco2)C1 (stereo not drawn) | > 54 µM (inactive)
77 | Cc1nc(CSc2nc3[nH]ncc3c(=O)n2-c2ccccc2)cs1 | > 54 µM (inactive)
78 | Cc1csc(CCc2nc(C)cs2)n1 | > 54 µM (inactive)

Row | Compound | IC50
79 | O=C(Nc1cccc(-c2csc(-c3ccccc3)n2)c1)c1cccs1 | > 54 µM (inactive)
80 | O=C(Nc1ccccn1)c1ccc([N+](=O)[O-])cc1Cl | > 54 µM (inactive)
81 | CCOc1cccc(CNCCO)c1OCc1ccc(Cl)cc1Cl | > 54 µM (inactive)
82 | Clc1ccccc1CN1CCc2sccc2C1 | > 54 µM (inactive)
83 | COc1ccc(CCNC(=O)c2ccc(=O)[nH]n2)cc1OC | > 54 µM (inactive)
84 | CCC(=NC(C)c1ccccc1)c1c(O)[nH]c(=O)[nH]c1=O (stereo not drawn) | 0.45 µM
85 | Cc1ccc(S(=O)(=O)CCNC(=O)Cc2ccccc2)cc1 | > 54 µM (inactive)
86 | O=C(CCS(=O)(=O)c1ccccc1)Nc1ccccc1-c1nc2ccccc2s1 | > 54 µM (inactive)
87 | Brc1cccc(OCCOCCn2ccnc2)c1 | > 54 µM (inactive)
88 | O=c1[nH]c(=O)n(CCc2ccccc2)c(O)c1C=NCc1ccc2c(c1)OCO2 | inactive
89 | O=C1C(=Cc2ccc(Br)o2)C(=O)c2ccccc21 | 3.15 µM
90 | Cn1c(SCc2nc3ccccc3s2)nnc1-c1ccc2c(c1)OCO2 | > 54 µM (inactive)
91 | COc1cccc(/C=N/NC(=O)c2cc3cc([N+](=O)[O-])ccc3s2)c1O | 1.58 µM
92 | NC(=O)c1cccn1-c1ncc(C(F)(F)F)cc1Cl | > 54 µM (inactive)
93 | N=c1cc(C2(O)CCCCC2)n2c(nc3ccccc32)s1 | > 54 µM (inactive)
94 | CCn1c(-c2cccc(Br)c2)n[nH]c1=S | > 54 µM (inactive)
95 | CCNc1ccc2noc3c2c1C(=O)c1ccccc1-3 | 14.7 µM
96 | Clc1ccc(OCCN2CCCCC2)c(Cl)c1 | > 54 µM (inactive)
97 | COc1ccccc1NC(=O)c1cn(C)c(=O)c2cc(OC)c(OC)cc12 | > 54 µM (inactive)
98 | O=[N+]([O-])C(=c1ccc2c(c1)N1C3=C(CCCC3)CC3CCCCC31N=2)[N+](=O)[O-] (stereo not drawn) | 0.73 µM
99 | O=C1C(C=NCc2ccncc2)=C(O)c2ccccc21 | > 54 µM (inactive)
100 | O=c1oc2ccccc2n1CCn1c2ccccc2c2nc3ccccc3nc21 | 8.21 µM
101 | Cc1ccccc1NC(=O)c1c(C)[nH]c(=S)c(C#N)c1-c1ccc(Cl)cc1 | > 54 µM (inactive)
102 | Cc1ccc(-c2nn(CC(=O)NCc3cc(-c4nn(C)c(=O)c5ccccc45)ccc3C)c(=O)c3ccccc23)cc1 | 0.85 µM
103 | COc1ccc(C(=O)NCc2nnc(SCC(=O)N3CCCCC3)o2)cc1OC | > 54 µM (inactive)
